Results: the supplement of paper PMC11208160

assay: recombinant UMI read abundance after kanamycin selection (control-corrected) (log10(CPM+1)); higher = more efficient recombination; extreme values may be limits of the assay; sequences stand for … in AGTGCAGAGAAAATCGGCCAGTTTTCTCTGCCTGCAGTCCGCATGCCGTGGGACCCCTTGGGTTCTAACCTGTTGCCTAGATTTATGCAGCGGACTGCCTTTCTCCCAAAGTGATAAACCGG…AGGTTGGTTTCACT; site = the 11-nt donor
Summary of the method: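 Pooled Escherichia coli screen of donor and donor-binding-loop pairs for the IS621 bridge recombinase. Each pair sits with a 12-nt UMI on a plasmid carrying a promoterless kanamycin gene. The library was co-electroporated with a target plasmid encoding a fixed target and T7-inducible recombinase, then plated with IPTG (0.07 mM) plus kanamycin, or unselected, each in two replicates. Recombinant UMIs were PCR-amplified across the donor–target junction and sequenced. Counts became CPM, averaged over replicates, scaled by control-derived factors and reported as log10(CPM+1).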
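Note: IS621 bridge recombinase in Escherichia coli cells against a fixed T5 target plasmid.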

Sequence	recombinant UMI read abundance (log10)
GTGCATGCATGGACCGGTTTTCCCGGTAATCCGTATTTGGT (site GTGCATGCTAC)	0.978
GTGCATGCATGGACCGGTTTTCCCGGTAATCCGTATTTGGT (site GTGCATGCTAG)	0.442
GTGCATGCATGGACCGGTTTTCCCGGTAATCCGTATTTGGT (site GTGCATGCTAT)	1.47
GTGCATGCATGGACCGGTTTTCCCGGTAATCCGTATTTGGT (site GTGCATGCTCC)	0.0111
GTGCATGCATGGACCGGTTTTCCCGGTAATCCGTATTTGGT (site GTGCATGCTGC)	0.451
GTGCATGCATGGACCGGTTTTCCCGGTAATCCGTATTTGGT (site GTGCATGCTTC)	0.0184
GTGCATGCATGGACCGGTTTTCCCGGTAATCCGTATTTGGT (site GTGCATTCTAC)	0
GTGCATGCATGGACCGGTTTTCCCGGTAATCCGTATTTGGT (site GTGCCTGCTAC)	1.15
GTGCATGCATGGACCGGTTTTCCCGGTAATCCGTATTTGGT (site GTGCGTGCTAC)	0.276
GTGCATGCATGGACCGGTTTTCCCGGTAATCCGTATTTGGT (site GTGCTTGCTAC)	0.00578
GTGCATGCATGGACCGGTTTTCCCGGTAATCCGTATTTGGT (site GTGGATGCTAC)	0.00465
GTGCATGCATGGACCGGTTTTCCCGGTAATCCGTATTTGGT (site GTGTATGCTAC)	0.469
GTGCATGCATGGACCGGTTTTCCCGGTAATCCGTATTTGGT (site GTTCATGCTAC)	0.448
GTGCATGCATGGACCGGTTTTCCCGGTAATCCGTATTTGGT (site TTGCATGCTAC)	0.412
GTGCGATCATGGACCGGTTTTCCCGGTAATCCGTATTTGAC (site GTGCGATCTGT)	1.92
GTGCGGGCATGGACCGGTTTTCCCGGTAATCCGTATTTGGT (site GTGCGGGCTAC)	0.486
GTGCTACCATGGACCGGTTTTCCCGGTAATCCGTATTTGCT (site ATGCTACCTAG)	0
GTGCTACCATGGACCGGTTTTCCCGGTAATCCGTATTTGCT (site CTGCTACCTAG)	0
GTGCTACCATGGACCGGTTTTCCCGGTAATCCGTATTTGCT (site GTGCTACCTAG)	0.0199
GTGCTACCATGGACCGGTTTTCCCGGTAATCCGTATTTGCT (site TTGCTACCTAG)	0
GTGCTCTCATGGACCGGTTTTCCCGGTAATCCGTATTTGTG (site GTGCTCTCTCA)	1.28
GTGCTGCCATGGACCGGTTTTCCCGGTAATCCGTATTTGTG (site GTGCTGCCTCA)	0.251
GTGCTGGCATGGACCGGTTTTCCCGGTAATCCGTATTTGGT (site GTGCTGGCTAC)	0.476
GTGCTTGCATGGACCGGTTTTCCCGGTAATCCGTATTTGGT (site GTGCATGCTAC)	0.0165
GTGCTTGCATGGACCGGTTTTCCCGGTAATCCGTATTTGGT (site GTGCCTGCTAC)	0.269

Sequence	recombinant UMI read abundance (log10)
GTGCTTGCATGGACCGGTTTTCCCGGTAATCCGTATTTGGT (site GTGCGTGCTAC)	0.0221
GTGCTTGCATGGACCGGTTTTCCCGGTAATCCGTATTTGGT (site GTGCTTGCTAC)	1.07
GTGGAAACATGGACCGGTTTTCCCGGTAATCCGTATTTGCA (site ATGGAAACTTG)	1.42
GTGGAAACATGGACCGGTTTTCCCGGTAATCCGTATTTGCA (site CTGGAAACTTG)	1.56
GTGGAAACATGGACCGGTTTTCCCGGTAATCCGTATTTGCA (site GTGGAAACTTG)	2.37
GTGGAAACATGGACCGGTTTTCCCGGTAATCCGTATTTGCA (site TTGGAAACTTG)	2.14
GTGGAAGCATGGACCGGTTTTCCCGGTAATCCGTATTTGTG (site GTGGAAGCTCA)	2.35
GTGGAAGCATGGACCGGTTTTCCCGGTAATCCGTATTTGTG (site GTGGACGCTCA)	0.582
GTGGAAGCATGGACCGGTTTTCCCGGTAATCCGTATTTGTG (site GTGGAGGCTCA)	1.53
GTGGAAGCATGGACCGGTTTTCCCGGTAATCCGTATTTGTG (site GTGGATGCTCA)	0.605
GTGGAGCCATGGACCGGTTTTCCCGGTAATCCGTATTTGTT (site GTGGAGCCTAA)	0.012
GTGGAGGCATGGACCGGTTTTCCCGGTAATCCGTATTTGTT (site GTGGAGGCTAA)	1.58
GTGGAGGCATGGACCGGTTTTCCCGGTAATCCGTATTTGTT (site GTGGAGGCTCA)	0.524
GTGGAGGCATGGACCGGTTTTCCCGGTAATCCGTATTTGTT (site GTGGAGGCTGA)	2.66
GTGGAGGCATGGACCGGTTTTCCCGGTAATCCGTATTTGTT (site GTGGAGGCTTA)	0.938
GTGGATGCATGGACCGGTTTTCCCGGTAATCCGTATTTGGT (site GTGAATGCTAC)	2.1
GTGGATGCATGGACCGGTTTTCCCGGTAATCCGTATTTGGT (site GTGCATGCTAC)	0.00775
GTGGATGCATGGACCGGTTTTCCCGGTAATCCGTATTTGGT (site GTGGATGCTAC)	2.2
GTGGATGCATGGACCGGTTTTCCCGGTAATCCGTATTTGGT (site GTGTATGCTAC)	1.03
GTGGCGCCATGGACCGGTTTTCCCGGTAATCCGTATTTGTA (site GTGGCGCCTTA)	0.00916
GTGGCTCCATGGACCGGTTTTCCCGGTAATCCGTATTTGTT (site GTGGCTCCTAA)	0.00981
GTGGGTACATGGACCGGTTTTCCCGGTAATCCGTATTTGAC (site GTAGGTACTGT)	2.16
GTGGGTACATGGACCGGTTTTCCCGGTAATCCGTATTTGAC (site GTCGGTACTGT)	0
GTGGGTACATGGACCGGTTTTCCCGGTAATCCGTATTTGAC (site GTGGGTACTGT)	2.91
GTGGGTACATGGACCGGTTTTCCCGGTAATCCGTATTTGAC (site GTTGGTACTGT)	2.72

Sequence	recombinant UMI read abundance (log10)
GTGGGTACATGGACCGGTTTTCCCGGTAATCCGTATTTGTT (site GTGGGTACTAA)	1.15
GTGGTCGCATGGACCGGTTTTCCCGGTAATCCGTATTTGGC (site GTGGTCGCTGC)	2.91
GTGGTGGCATGGACCGGTTTTCCCGGTAATCCGTATTTGTG (site GTGGAGGCTCA)	0.789
GTGGTGGCATGGACCGGTTTTCCCGGTAATCCGTATTTGTG (site GTGGCGGCTCA)	0.0357
GTGGTGGCATGGACCGGTTTTCCCGGTAATCCGTATTTGTG (site GTGGGGGCTCA)	0.0222
GTGGTGGCATGGACCGGTTTTCCCGGTAATCCGTATTTGTG (site GTGGTGGCTCA)	0.992
GTGTCCGCATGGACCGGTTTTCCCGGTAATCCGTATTTGGC (site GTGTCCGCTGC)	2.26
GTGTGGGCATGGACCGGTTTTCCCGGTAATCCGTATTTGAG (site GTGTGGGCTCT)	1.21
GTGTTACCATGGACCGGTTTTCCCGGTAATCCGTATTTGGT (site GTGTTACCTAC)	0
GTGTTATCATGGACCGGTTTTCCCGGTAATCCGTATTTGCT (site GTGTTATCTAG)	2.87
GTTACACCATGGACCGGTTTTCCCGGTAATCCGTATTTGGC (site GTTACACCTGC)	0
GTTAGAACATGGACCGGTTTTCCCGGTAATCCGTATTTGAC (site GTTAGAACTGA)	0.0146
GTTAGAACATGGACCGGTTTTCCCGGTAATCCGTATTTGAC (site GTTAGAACTGC)	0.0153
GTTAGAACATGGACCGGTTTTCCCGGTAATCCGTATTTGAC (site GTTAGAACTGG)	0
GTTAGAACATGGACCGGTTTTCCCGGTAATCCGTATTTGAC (site GTTAGAACTGT)	1.89
GTTAGAACATGGACCGGTTTTCCCGGTAATCCGTATTTGGA (site GTTAGAACTAC)	0.00435
GTTAGAACATGGACCGGTTTTCCCGGTAATCCGTATTTGGA (site GTTAGAACTCC)	0.0329
GTTAGAACATGGACCGGTTTTCCCGGTAATCCGTATTTGGA (site GTTAGAACTGC)	0
GTTAGAACATGGACCGGTTTTCCCGGTAATCCGTATTTGGA (site GTTAGAACTTC)	0.178
GTTAGAGCATGGACCGGTTTTCCCGGTAATCCGTATTTGTG (site GTTAGAGCTCA)	1.74
GTTAGGACATGGACCGGTTTTCCCGGTAATCCGTATTTGAG (site GTTAGGACTCT)	1.83
GTTATCCCATGGACCGGTTTTCCCGGTAATCCGTATTTGGC (site GTTATCCCTGC)	0
GTTCAAGCATGGACCGGTTTTCCCGGTAATCCGTATTTGCA (site GTTCAAGCTTG)	1.62
GTTCAAGCATGGACCGGTTTTCCCGGTAATCCGTATTTGCA (site GTTCCAGCTTG)	0
GTTCAAGCATGGACCGGTTTTCCCGGTAATCCGTATTTGCA (site GTTCGAGCTTG)	0
